This passage reports IC50 results from patent US11780841B2, “3,6-methano-1H-pyrrolo[3,2-b]pyridine and 3,6-methano-1H-pyrrolo[3,2-c]pyridine compounds and medicaments using same” (priority 2018, dated 2023).

The subject of the experiment is recombinant rabies virus 1088 strain expressing Gaussia Luciferase (GLuc) (1088/GLuc). Type of experiment: cell-based. As to conditions: read-out: Anti-rabies activity.

Bounds are passed on as bounds.

As for `N=C(N)NCCC[C@@H]1[C@H]2CN[C@@]3(C(=O)NCc4ccc(F)cc4)[C@@H](C2)CN(Cc2ccc(O)cc2)[C@@H]13` [IB-207], the IC50 was in the range of 10 to 30 µM. Consider `N=C(N)NCCC[C@@H]1[C@H]2CN[C@@]3(C(=O)NCCc4ccccc4)[C@@H](C2)CN(Cc2ccccc2)[C@@H]13` [IB-247], for which the IC50 is 10 to 30 µM. The figure for `CCCCCCNC(=O)[C@]12NC[C@H]3C[C@H]1CN(Cc1ccccc1)[C@H]2[C@@H]3CCCNC(=N)N` [IB-249] is 10 to 30 µM; for `N=C(N)NCCC[C@@H]1[C@H]2CN[C@@]3(C(=O)NCc4ccc(F)cc4)[C@@H](C2)CN(Cc2ccccc2)[C@@H]13` [IB-250] it is 10 to 30 µM; for `CCCCCCNC(=O)[C@]12NC[C@H]3C[C@H]1CN(CCc1ccccc1)[C@H]2[C@@H]3CCCNC(=N)N` [IB-256] it is 10 to 30 µM. On to `N=C(N)NCCC[C@@H]1[C@H]2CN[C@@]3(C(=O)NCc4ccccc4)[C@@H](C2)CN(Cc2ccc(F)cc2)[C@@H]13` [IB-260], for which the IC50 is 10 to 30 µM. As to `N=C(N)NCCC[C@@H]1[C@H]2CN[C@@]3(C(=O)NCCc4ccccc4)[C@@H](C2)CN(Cc2ccc(F)cc2)[C@@H]13` [IB-262], the IC50 lay within 10 to 30 µM. Then `CC(C)CC[C@@H]1[C@H]2CN[C@@]3(C(=O)NCCC(N)=O)[C@@H](C2)CN(Cc2ccccc2)[C@@H]13` [IB-274], with 10 to 30 µM; and `N=C(N)NCCCNC(=O)[C@]12NC[C@H]3C[C@H]1CN(Cc1ccccc1)[C@H]2[C@@H]3Cc1ccccc1` [IB-276], with 10 to 30 µM. Then `N=C(N)NCCCNC(=O)[C@]12NC[C@H]3C[C@H]1CN(Cc1ccccc1)[C@H]2[C@@H]3CCc1ccccc1` [IB-279], with 10 to 30 µM; and `N=C(N)NCCCNC(=O)[C@]12NC[C@H]3C[C@H]1CN(Cc1ccccc1)[C@H]2[C@@H]3Cc1cccc2ccccc12` [IB-280], with 10 to 30 µM; and `N=C(N)NCCCN1C[C@@H]2C[C@@H]3CN[C@]2(C(=O)NCc2ccccc2)[C@@H]1[C@@H]3Cc1cccc2ccccc12` [IB-300], with 10 to 30 µM. Then `N=C(N)NCCCN1C[C@@H]2C[C@@H]3CN[C@]2(C(=O)NCCc2ccccc2)[C@@H]1[C@@H]3Cc1cccc2ccccc12` [IB-327], with 10 to 30 µM.

For the molecule `CC(C)CC[C@@H]1[C@H]2CN[C@@]3(C(=O)NCCC(N)=O)[C@@H](C2)CN(CCc2ccccc2)[C@@H]13` [IB-342], the IC50 lay in the range of 10 to 30 µM. Then `N=C(N)NCCCNC(=O)[C@]12NC[C@H]3C[C@H]1CN(CCc1ccccc1)[C@H]2[C@@H]3Cc1ccccc1` [IB-344], with 10 to 30 µM; and `CC(C)CC[C@@H]1[C@H]2CN[C@@]3(C(=O)NCCCNC(=N)N)[C@@H](C2)CN(CCc2ccccc2)[C@@H]13` [IB-346], with 10 to 30 µM; and `N=C(N)NCCCNC(=O)[C@]12NC[C@H]3C[C@H]1CN(CCc1ccccc1)[C@H]2[C@@H]3Cc1cccc2ccccc12` [IB-347], with 10 to 30 µM. As for `CC(C)CC[C@@H]1[C@H]2CN[C@@]3(C(=O)NCCC(N)=O)[C@@H](C2)CN(Cc2cccc4ccccc24)[C@@H]13` [IB-349], the IC50 is below 5 µM.

With `CC(C)C[C@@H]1[C@H]2CN[C@@]3(C(=O)NCCCNC(=N)N)[C@@H](C2)CN(Cc2cccc4ccccc24)[C@@H]13` [IB-350], the IC50 lay within 10 to 30 µM. For the molecule `N=C(N)NCCCNC(=O)[C@]12NC[C@H]3C[C@H]1CN(Cc1cccc4ccccc14)[C@H]2[C@@H]3Cc1ccccc1` [IB-351], the IC50 is 10 to 30 µM. Then `CC(C)CC[C@@H]1[C@H]2CN[C@@]3(C(=O)NCCCNC(=N)N)[C@@H](C2)CN(Cc2cccc4ccccc24)[C@@H]13` [IB-353], with below 5 µM. On to `N=C(N)NCCCNC(=O)[C@]12NC[C@H]3C[C@H]1CN(Cc1cccc4ccccc14)[C@H]2[C@@H]3CCc1ccccc1` [IB-354], for which the IC50 is below 5 µM. Then `CC(C)CC[C@@H]1[C@H]2CN[C@@]3(C(=O)NCCC(N)=O)[C@@H](C2)CN(CC2CCCCC2)[C@@H]13` [IB-357], with 10 to 30 µM. Turning to `CC(C)CC[C@@H]1[C@H]2CN[C@@]3(C(=O)NCCCNC(=N)N)[C@@H](C2)CN(CC2CCCCC2)[C@@H]13` [IB-361], the IC50 lay within 10 to 30 µM. Then `N=C(N)NCCCNC(=O)[C@]12NC[C@H]3C[C@H]1CN(CC1CCCCC1)[C@H]2[C@@H]3CCc1ccccc1` [IB-362], with below 5 µM. The figure for `CC(C)CC[C@@H]1[C@H]2CN[C@@]3(C(=O)NCCC(N)=O)[C@@H](C2)CN(Cc2ccc(F)cc2)[C@@H]13` [IB-365] is 10 to 30 µM; for `CC(C)CC[C@@H]1[C@H]2CN[C@@]3(C(=O)NCCCNC(=N)N)[C@@H](C2)CN(Cc2ccc(F)cc2)[C@@H]13` [IB-369] it is 10 to 30 µM; for `CC(C)CC[C@@H]1[C@H]2CN[C@@]3(C(=O)NCC(C)C)[C@@H](C2)CN(CCO)[C@@H]13` [IB-372] it is 10 to 30 µM. Then `CC(C)CC[C@@H]1[C@H]2CN[C@@]3(C(=O)NCC(C)C)[C@@H](C2)CN(CC(C)C)[C@@H]13` [IB-378], with below 5 µM; and `CC(C)CCN1C[C@@H]2C[C@@H]3CN[C@]2(C(=O)NCCC(=O)O)[C@@H]1[C@@H]3Cc1cccc2ccccc12` [IB-381], with 10 to 30 µM. Consider `O=C(O)CCNC(=O)[C@]12NC[C@H]3C[C@H]1CN(Cc1ccc(F)cc1)[C@H]2[C@@H]3Cc1cccc2ccccc12` [IB-384], for which the IC50 was in the range of 10 to 30 µM.

Turning to `CC(C)CCN1C[C@@H]2C[C@@H]3CN[C@]2(C(=O)NCc2ccc(F)cc2)[C@@H]1[C@@H]3CCC(=O)O` [IB-386], the IC50 was 10 to 30 µM. For the molecule `O=C(O)CC[C@@H]1[C@H]2CN[C@@]3(C(=O)NCc4cccc5ccccc45)[C@@H](C2)CN(CC2CCCCC2)[C@@H]13` [IB-389], the IC50 fell in the range of 10 to 30 µM.

For the molecule `O=C(O)CC[C@@H]1[C@H]2CN[C@@]3(C(=O)NCc4cccc5ccccc45)[C@@H](C2)CN(Cc2ccc(F)cc2)[C@@H]13` [IB-390], the IC50 was 10 to 30 µM. Then `CC(C)C[C@@H]1[C@H]2CN[C@@]3(C(=O)NCc4cccc5ccccc45)[C@@H](C2)CN(CCC(=O)O)[C@@H]13` [IB-392], with 10 to 30 µM; and `O=C(O)CCN1C[C@@H]2C[C@@H]3CN[C@]2(C(=O)NCc2ccc(F)cc2)[C@@H]1[C@@H]3Cc1ccccc1` [IB-394], with 10 to 30 µM. The figure for `CC(C)CC[C@@H]1[C@H]2CN[C@@]3(C(=O)NCc4cccc5ccccc45)[C@@H](C2)CN(CCC(=O)O)[C@@H]13` [IB-398] is 10 to 30 µM; for `CC(C)CC[C@@H]1[C@H]2CN[C@@]3(C(=O)NCc4ccc(F)cc4)[C@@H](C2)CN(CCC(=O)O)[C@@H]13` [IB-399] it is 10 to 30 µM. As to `CC(C)CC[C@@H]1[C@H]2CN[C@@]3(C(=O)NCc4ccc(O)cc4)[C@@H](C2)CN(CCC(=O)O)[C@@H]13` [IB-402], the IC50 was 10 to 30 µM. Then `O=C(O)CCNC(=O)[C@]12NC[C@H]3C[C@H]1CN(Cc1ccc(O)cc1)[C@H]2[C@@H]3Cc1cccc2ccccc12` [IB-410], with 10 to 30 µM. For `O=C(NCc1ccc(O)cc1)[C@]12NC[C@H]3C[C@H]1CN(Cc1cccc4ccccc14)[C@H]2[C@@H]3Cc1cccc2ccccc12` [IB-417], the IC50 was in the range of 10 to 30 µM. On to `O=C(O)CC[C@@H]1[C@H]2CN[C@@]3(C(=O)NCc4cccc5ccccc45)[C@@H](C2)CN(CCO)[C@@H]13` [IB-425], for which the IC50 is 10 to 30 µM. Then `CC(C)CCN1C[C@@H]2C[C@@H]3CN[C@]2(C(=O)NCc2cccc4ccccc24)[C@@H]1[C@@H]3CO` [IB-426], with below 5 µM. The figure for `CC(C)CNC(=O)[C@]12NC[C@H]3C[C@H]1CN(CCC(=O)O)[C@H]2[C@@H]3CCc1ccccc1` [IB-430] is below 5 µM. Then `CC(C)CNC(=O)[C@]12NC[C@H]3C[C@H]1CN(CCC(=O)O)[C@H]2[C@@H]3CO` [IB-431], with 10 to 30 µM.

Regarding `CC(C)C[C@@H]1[C@H]2CN[C@@]3(C(=O)NCc4ccc(O)cc4)[C@@H](C2)CN(CCc2ccccc2)[C@@H]13` [IB-449], the IC50 was in the range of 10 to 30 µM. Then `CC(C)C[C@@H]1[C@H]2CN[C@@]3(C(=O)NCc4ccc(O)cc4)[C@@H](C2)CN(Cc2ccc(F)cc2)[C@@H]13` [IB-458], with 10 to 30 µM; and `O=C(NCCO)[C@]12NC[C@H]3C[C@H]1CN(Cc1cccc4ccccc14)[C@H]2[C@@H]3Cc1ccc(O)cc1` [IB-459], with 10 to 30 µM; and `CC(C)CC[C@@H]1[C@H]2CN[C@@]3(C(=O)NCCO)[C@@H](C2)CN(CCc2ccccc2)[C@@H]13` [IB-461], with 10 to 30 µM. For the molecule `CC(C)C[C@@H]1[C@H]2CN[C@@]3(C(=O)NCc4ccc(O)cc4)[C@@H](C2)CN(Cc2ccccc2)[C@@H]13` [IB-464], the IC50 is below 5 µM.

For `CC(C)CC[C@@H]1[C@H]2CN[C@@]3(C(=O)NCc4ccc(O)cc4)[C@@H](C2)CN(CC(C)C)[C@@H]13` [IB-465], the IC50 was 10 to 30 µM. The figure for `O=C(NCc1ccc(O)cc1)[C@]12NC[C@H]3C[C@H]1CN(CCO)[C@H]2[C@@H]3Cc1cccc2ccccc12` [IB-470] is 10 to 30 µM; for `CCCCCCNC(=O)[C@]12NC[C@H]3C[C@H]1CN(CCO)[C@H]2[C@@H]3Cc1ccccc1` [IB-476] it is below 5 µM. Take `CCCCCCNC(=O)[C@]12NC[C@H]3C[C@H]1CN(CCO)[C@H]2[C@@H]3CC(C)C` [IB-477]: the IC50 was below 5 µM. The figure for `CCCCCCNC(=O)[C@]12NC[C@H]3C[C@H]1CN(CCO)[C@H]2[C@@H]3Cc1ccc(O)cc1` [IB-478] is 10 to 30 µM; for `O=C(NCc1ccc(F)cc1)[C@]12NC[C@H]3C[C@H]1CN(CCO)[C@H]2[C@@H]3Cc1ccccc1` [IB-479] it is 10 to 30 µM. Then `CC(C)CCN1C[C@@H]2C[C@@H]3CN[C@]2(C(=O)NCc2ccc(F)cc2)[C@@H]1[C@@H]3Cc1ccc(O)cc1` [IB-481], with below 5 µM. With `CCCCCCNC(=O)[C@]12NC[C@H]3C[C@H]1CN(CCO)[C@H]2[C@@H]3CCC(C)C` [IB-490], the IC50 is below 5 µM. Then `O=C(NCc1ccc(F)cc1)[C@]12NC[C@H]3C[C@H]1CN(CCO)[C@H]2[C@@H]3CCc1ccccc1` [IB-492], with below 5 µM; and `CC(C)C[C@@H]1[C@H]2CN[C@@]3(C(=O)NCCc4ccccc4)[C@@H](C2)CN(CC(C)C)[C@@H]13` [IB-495], with below 5 µM; and `CC(C)CN1C[C@@H]2C[C@@H]3CN[C@]2(C(=O)NCc2ccc(F)cc2)[C@@H]1[C@@H]3Cc1ccc(O)cc1` [IB-498], with below 5 µM. Then `CC(C)C[C@@H]1[C@H]2CN[C@@]3(C(=O)NCc4ccc(F)cc4)[C@@H](C2)CN(Cc2ccc(O)cc2)[C@@H]13` [IB-499], with below 5 µM.
